The values that follow come from US20210228713A1, “TLR7 PEPTIDE CONJUGATES” (Apros Therapeutics, Inc., priority 2018, published 2021).

Like-named read-outs stand apart in the source and are kept apart here. Residues, ends and D or L forms follow the SMILES beside them. No end group written: not given here. *: point of attachment. X1 = CCCC[C@@H](CCS(C)(=O)=O)Nc1nc(N)nc(C)c1Cc1cc(CC(=O)*)ccc1OC A value given as a limit tells only on which side of the number the result lay.

This assay deals with T1, human TLR7 (hTLR7) (Homo sapiens, UniProt Q9NYK1).
T1 construct: host or cells: HEK293 (HEK-Blue hTLR7)
T1 sequence (Q9NYK1 27-1049): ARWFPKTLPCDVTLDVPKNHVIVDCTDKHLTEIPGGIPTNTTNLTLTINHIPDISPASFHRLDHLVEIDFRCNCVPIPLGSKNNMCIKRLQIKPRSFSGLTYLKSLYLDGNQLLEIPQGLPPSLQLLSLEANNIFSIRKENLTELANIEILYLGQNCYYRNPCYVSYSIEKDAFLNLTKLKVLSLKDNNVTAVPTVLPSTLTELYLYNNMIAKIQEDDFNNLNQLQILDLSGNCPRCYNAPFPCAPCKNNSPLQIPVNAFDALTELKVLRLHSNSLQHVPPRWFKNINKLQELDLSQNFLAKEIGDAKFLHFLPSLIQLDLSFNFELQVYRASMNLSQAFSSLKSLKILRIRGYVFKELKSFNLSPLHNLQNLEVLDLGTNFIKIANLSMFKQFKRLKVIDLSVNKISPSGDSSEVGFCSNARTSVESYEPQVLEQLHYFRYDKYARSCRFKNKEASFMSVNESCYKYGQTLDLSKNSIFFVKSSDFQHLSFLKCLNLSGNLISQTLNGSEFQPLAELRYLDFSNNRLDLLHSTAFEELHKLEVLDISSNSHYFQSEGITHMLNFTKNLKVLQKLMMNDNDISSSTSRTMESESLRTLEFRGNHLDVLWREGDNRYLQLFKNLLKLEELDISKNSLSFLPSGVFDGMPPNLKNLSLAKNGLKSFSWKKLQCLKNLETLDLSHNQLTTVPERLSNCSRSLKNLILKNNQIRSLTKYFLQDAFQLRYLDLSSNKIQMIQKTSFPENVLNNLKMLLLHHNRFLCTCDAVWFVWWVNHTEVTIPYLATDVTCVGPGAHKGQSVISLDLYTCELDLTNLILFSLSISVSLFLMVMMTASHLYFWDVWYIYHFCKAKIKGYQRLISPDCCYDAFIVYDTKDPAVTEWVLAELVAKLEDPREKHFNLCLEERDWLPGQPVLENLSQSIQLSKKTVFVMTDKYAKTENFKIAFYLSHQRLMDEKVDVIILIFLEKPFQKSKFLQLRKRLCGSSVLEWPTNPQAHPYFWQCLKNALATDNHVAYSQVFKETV
Put plainly: HEK-Blue hTLR7 cell assay (NF-kB/AP-1 driven SEAP reporter). Type of assay: cell-based. The text has this: HEK-Blue™ TLR7 cells were purchased from Invivogen (San Diego, Calif.). The following description was taken from the product information sheet.
“HEK-Blue™ hTLR7 cells are designed for studying the stimulation of human TLR7 (hTLR7) by monitoring the activation of NF-kB. HEK-Blue™ hTLR7 cells were obtained by co-transfection of the hTLR7 gene and an optimized secreted embryonic alkaline phosphatase (SEAP) reporter gene into HEK293 cells. The SEAP reporter gene is placed under the control of the IFN-b minimal promoter fused to five NF-kB and AP-1-binding sites. Stimulation with a TLR7 ligand activates NF-kB and AP-1 which induce the production of SEAP, which is detected by the HEK-Blue™ Detection cell culture medium.”
A typical assay protocol involved the following steps:
1. Cells were cultured according to the product information sheet.
2. 10 mM compound stock in DMSO were first diluted to 3 mM and then 3-fold serially diluted using DMSO to afford a 10-pt dilution.
3. 3 μl of the diluted DMSO were added to 57 μl HEK-Blue™ Detection media for a further 20-fold dilution.
4. 10 μl of the diluted compound in assay media were added into 40 μl cell culture (in HEK-Blue™ Detection media) in 384-well plate. Final cell concentration=8,000 cells per well.
5. The plates were incubated at 37° C. in 5% CO2 for 16 h. SEAP was determined using a spectrophotometer at 620-655 nm.

The mark [1] stands for this setting: HEK TLR7 activity of unconjugated (naked) peptides, read-out: EC50, Peptide without Compound 1.
Setting [2] is: HEK-Blue hTLR7 cells, 16 h incubation, SEAP read at 620-655 nm, read-out: HEK-TLR7 EC50.

`CC[C@H](C)[C@H](NC(=O)[C@H](CC(C)C)NC(=O)[C@@H](NC(=O)[C@H](CC(C)C)NC(=O)[C@H](CC(C)C)NC(=O)[C@H](CC(C)C)NC(=O)CN)C(C)C)C(=O)N[C@@H](Cc1ccc(O)cc1)C(=O)N[C@@H](CC(C)C)C(=O)N[C@@H](Cc1ccc(O)cc1)C(=O)NCC(=O)N1CCC[C@H]1C(=O)N[C@@H](CO)C(=O)N[C@@H](CC(C)C)C(=O)N[C@@H](Cc1ccc(O)cc1)C(=O)N[C@@H](CCCNC(=N)N)C(=O)N[C@@H](CCCNC(=N)N)C(=O)N[C@@H](Cc1ccccc1)C(=O)N[C@@H](Cc1ccccc1)C(=O)N[C@@H](CO)C(=O)N[C@@H](CC(N)=O)C(=O)N[C@@H](CC(=O)O)C(=O)N[C@@H](CS)C(=O)N[C@@H](CS)C(=O)N[C@@H](CO)C(=O)O` [AP4] (H-GLLLVLIYLYGPSLYRRFFSNDCCS-OH): the EC50 (in general, the concentration giving half of the maximal effect) under setting [1] was above 30 µM. The molecule EQLSSVSSFERFEIFPKESSWPNHN [AP11] registered an EC50 above 30 µM. Consider DTIWALSVKYGVSVQDIMSWNNLSS [AP7], for which the EC50 was above 10 µM. Same read-out and setting: under ESLKISQAVHAAHAEINEAGREVVG [AP10] stands above 30 µM. As to `CCCC[C@@H](CCS(C)(=O)=O)Nc1nc(N)nc(C)c1Cc1cc(CC(=O)NCCCC[C@H](NC(C)=O)C(=O)O)ccc1OC` [Compound 1-lysine conjugate], under setting [2], the EC50 is 0.1 µM. The molecule `CSCC[C@H](NC(=O)CNC(=O)[C@@H](NC(=O)[C@H](CCCNC(=N)N)NC(=O)[C@@H](NC(=O)[C@H](CC(C)C)NC(=O)[C@H](C)NC(=O)[C@H](CCCNC(=N)N)NC(=O)[C@@H](NC(=O)[C@H](CCCNC(=N)N)NC(=O)[C@H](CCC(N)=O)NC(=O)[C@H](Cc1ccc(O)cc1)NC(=O)[C@@H](NC(=O)[C@@H](NC(=O)[C@H](CC(=O)O)NC(=O)[C@H](CC(N)=O)NC(=O)[C@H](CC(C)C)NC(=O)[C@H](CC(N)=O)NC(=O)[C@H](CO)NC(=O)[C@@H](N)Cc1c[nH]cn1)[C@@H](C)O)[C@@H](C)O)[C@@H](C)O)C(C)C)[C@@H](C)O)C(=O)N[C@@H](CC(=O)O)C(=O)N1CCC[C@H]1C(=O)N[C@@H](CCCNC(=N)N)C(=O)N[C@@H](CCSC)C(=O)N[C@@H](CS)C(=O)O` [AP1] displayed an EC50 above 30 µM. As for NRFVSIFASGPSQKIQLVNNNGSWH [AP5], the EC50 under setting [1] is above 30 µM. With `CC[C@H](C)[C@H](NC(=O)[C@H](CCCCN)NC(=O)CNC(=O)[C@@H](NC(=O)[C@@H](NC(=O)[C@H](Cc1ccccc1)NC(=O)[C@H](C)NC(=O)[C@H](CCCNC(=N)N)NC(=O)CNC(=O)[C@@H]1CCCN1C(=O)CNC(=O)[C@H](CCCNC(=N)N)NC(=O)[C@H](CCC(N)=O)NC(=O)[C@@H](NC(=O)[C@H](CCCNC(=N)N)NC(=O)[C@@H](NC(=O)[C@H](CO)NC(=O)[C@H](CCCCN)NC(=O)[C@H](CCCNC(=N)N)NC(=O)[C@@H](N)CCCCN)[C@@H](C)CC)[C@@H](C)CC)C(C)C)[C@@H](C)O)C(=O)NCC(=O)N[C@@H](CC(N)=O)C(=O)N[C@@H](CCSC)C(=O)N[C@@H](CCCNC(=N)N)C(=O)N[C@@H](CCC(N)=O)C(=O)O` [AP2], the EC50 under setting [1] is above 30 µM. Turning to `CCCC[C@@H](CCS(C)(=O)=O)Nc1nc(N)nc(C)c1Cc1cc(CC(=O)N[C@@H](CCC(=O)O)C(=O)N[C@@H](CO)C(=O)N[C@@H](CC(C)C)C(=O)N[C@@H](CCCCN)C(=O)N[C@H](C(=O)N[C@@H](CO)C(=O)N[C@@H](CCC(N)=O)C(=O)N[C@@H](C)C(=O)N[C@H](C(=O)N[C@@H](Cc2c[nH]cn2)C(=O)N[C@@H](C)C(=O)N[C@@H](C)C(=O)N[C@@H](Cc2c[nH]cn2)C(=O)N[C@@H](C)C(=O)N[C@@H](CCC(=O)O)C(=O)N[C@H](C(=O)N[C@@H](CC(N)=O)C(=O)N[C@@H](CCC(=O)O)C(=O)N[C@@H](C)C(=O)NCC(=O)N[C@@H](CCCNC(=N)N)C(=O)N[C@@H](CCC(=O)O)C(=O)N[C@H](C(=O)N[C@H](C(=O)NCC(=O)O)C(C)C)C(C)C)[C@@H](C)CC)C(C)C)[C@@H](C)CC)ccc1OC` [*AP10] (X1-ESLKISQAVHAAHAEINEAGREVVG-OH), for the setting “HEK TLR7 activity of Compound 1-peptide conjugates, read-out: EC50, Peptide - Compound 1 Conjugate”, the EC50 is 0.21 µM. In the case of LLTRILTIPQSLDSWWTSLNFLGGS [AP9], the EC50 under setting [1] is above 30 µM.

Consider `CCCC[C@@H](CCS(C)(=O)=O)Nc1nc(N)nc(C)c1Cc1cc(CC(=O)N[C@@H](C)C(=O)O)ccc1OC` [Compound 1-alanine conjugate], for which, under setting [2], the EC50 was 0.1 µM. Consider LGRLMYDMYPHFMPTNLGPSEKRVW [AP8], for which the EC50 under setting [1] is above 30 µM. The molecule `CCCC[C@@H](CCS(C)(=O)=O)Nc1nc(N)nc(C)c1Cc1cc(CC(=O)N[C@@H](CC(N)=O)C(=O)N[C@@H](CCCNC(=N)N)C(=O)N[C@@H](Cc2ccccc2)C(=O)N[C@H](C(=O)N[C@@H](CO)C(=O)N[C@H](C(=O)N[C@@H](Cc2ccccc2)C(=O)N[C@@H](C)C(=O)N[C@@H](CO)C(=O)NCC(=O)N2CCC[C@H]2C(=O)N[C@@H](CO)C(=O)N[C@@H](CCC(N)=O)C(=O)N[C@@H](CCCCN)C(=O)N[C@H](C(=O)N[C@@H](CCC(N)=O)C(=O)N[C@@H](CC(C)C)C(=O)N[C@H](C(=O)N[C@@H](CC(N)=O)C(=O)N[C@@H](CC(N)=O)C(=O)N[C@@H](CC(N)=O)C(=O)NCC(=O)N[C@@H](CO)C(=O)N[C@@H](Cc2c[nH]c3ccccc23)C(=O)N[C@@H](Cc2c[nH]cn2)C(=O)O)C(C)C)[C@@H](C)CC)[C@@H](C)CC)C(C)C)ccc1OC` [*AP5] (X1-NRFVSIFASGPSQKIQLVNNNGSWH-OH) registered a 50% effective concentration (EC50) of 0.15 µM. Same read-out and setting: under `CCCC[C@@H](CCS(C)(=O)=O)Nc1nc(N)nc(C)c1Cc1cc(CC(=O)N[C@@H](CC(C)C)C(=O)N[C@@H](CC(C)C)C(=O)N[C@H](C(=O)N[C@@H](CCCNC(=N)N)C(=O)N[C@H](C(=O)N[C@@H](CC(C)C)C(=O)N[C@H](C(=O)N[C@H](C(=O)N2CCC[C@H]2C(=O)N[C@@H](CCC(N)=O)C(=O)N[C@@H](CO)C(=O)N[C@@H](CC(C)C)C(=O)N[C@@H](CC(=O)O)C(=O)N[C@@H](CO)C(=O)N[C@@H](Cc2c[nH]c3ccccc23)C(=O)N[C@@H](Cc2c[nH]c3ccccc23)C(=O)N[C@H](C(=O)N[C@@H](CO)C(=O)N[C@@H](CC(C)C)C(=O)N[C@@H](CC(N)=O)C(=O)N[C@@H](Cc2ccccc2)C(=O)N[C@@H](CC(C)C)C(=O)NCC(=O)NCC(=O)N[C@@H](CO)C(=O)O)[C@@H](C)O)[C@@H](C)CC)[C@@H](C)O)[C@@H](C)CC)[C@@H](C)O)ccc1OC` [*AP9] (X1-LLTRILTIPQSLDSWWTSLNFLGGS-OH) stands 0.32 µM; under `CC[C@H](C)[C@H](NC(=O)[C@H](CCCCN)NC(=O)CNC(=O)[C@@H](NC(=O)[C@@H](NC(=O)[C@@H](NC(=O)[C@H](Cc1ccccc1)NC(=O)[C@H](C)NC(=O)[C@H](CCCNC(=N)N)NC(=O)CNC(=O)[C@@H]1CCCN1C(=O)CNC(=O)[C@H](CCCNC(=N)N)NC(=O)[C@H](CCC(N)=O)NC(=O)[C@@H](NC(=O)[C@H](CCCNC(=N)N)NC(=O)[C@@H](NC(=O)[C@H](CO)NC(=O)[C@H](CCCCN)NC(=O)[C@H](CCCNC(=N)N)NC(=O)[C@@H](N)CCCCN)[C@@H](C)CC)[C@@H](C)CC)C(C)C)[C@@H](C)O)[C@@H](C)CC)C(=O)NCC(=O)N[C@@H](CC(N)=O)C(=O)N[C@@H](CCSC)C(=O)N[C@@H](CCCNC(=N)N)C(=O)O` [AP6], above 30 µM.
